# Tests used:
# [1] = system: PANC-1; assay: In vitro anti-proliferative activity against human tumor cell lines (PANC-1); format: cell-based; conditions: PANC-1, Pancreatic carcinoma, 72 hours
# Protocol: (§1) In vitro anti-proliferative activity against human tumor cell lines
# (§2) Test Compound: 5-ethynyl-1-β-D-ribofuranosylimidazole-4-carboxamide
# (§3) A variety of human tumor cell lines are suspended in media specified according to the species of the cell lines to predetermined cell concentrations as shown in the following Table.
# (§4) 1 ml of the resulting cell suspension is seeded into each well of a 24 multi-well plate and incubated in a 5% CO2 -incubator at 37° C. for 24 hours. The culture medium is then replaced by a medium containing no test compound or by an appropriate amount of a serially diluted test compound solution. […] The number of the cells in each well is counted with a Coulter counter (Model ZB, Coulter Electronics), and the growth inhibition percent (%) of the cells at each concentration of a test compound is determined by the following equation: [formula] Tx: Number of the cells in a well containing a test compound as counted upon completion of the incubation (cells/ml) […] Cx: Number of the cells in a well containing no test compound as counted upon completion of the incubation (cells/ml)
# (§5) Co: Number of the cells in a well containing no test compound as counted at the initiation of the incubation (cells/ml) […]
# [2] = system: mouse sarcoma 180; assay: In vitro anti-proliferative activity against mouse tumor cell lines, Test Method 2 (sarcoma 180); format: cell-based; conditions: Sarcoma 180, 48 hours, 37° C.
# Protocol: In vitro anti-proliferative activity against mouse tumor cell lines
# 1. Mouse lymphoma cell line P388 or mouse sarcoma 180 is suspended in RPMI1640 medium supplemented with 10% fetal bovine serum and 2 μM 2-hydroxyethyl disulfide to a concentration of 10^5 cells/ml. Test compounds are serially diluted with the same medium.
# 2. 0.5 ml of the cell suspension thus obtained is admixed with 0.5 ml of the medium or the test compound solution, and the mixture is incubated in a 5% CO2 -incubator at 37° C. for 48 hours. The incubation is carried out in glass culture tubes.
# 3. At the end of incubation, the number of the cells in each tube is counted with a Coulter counter (Model ZB, Coulter Electronics), and the growth inhibition percent (%) is calculated from the same equation as in Test Method 1.
# 4. The IC50 value is obtained as in Test Method I.
# [3] = system: human gastric cancer cells, 4-1ST; assay: In vivo antitumor activity against human gastric cancer cells, 4-1ST, subcutaneously implanted into nude mice; conditions: for Body weight / T/C (%) / Tumor growth rate (Rt): 125 mg/kg i.v. days 10, 14, 18
# Protocol: In vivo antitumor activity against human gastric cancer cells, 4-1ST, subcutaneously implanted into nude mice
# Human gastric cancer cells, 4-1ST(ca. 8 mm^3), are subcutaneously implanted at the ventral site of nude mice (BALB/c-nu/nu, female, 5 weeks old). Ten days after the implantation when the tumor volume reaches 150 to 300 mm^3, the mice are divided into groups (6 mice/group), and the treatment with a test drug was started.
# 5-Ethynyl-1-β-D-ribofuranosylimidazole-4-carboxamide is dissolved in distilled water and intravenously administered to the mice at a dose of 125 mg/kg on days 10, 14 and 18 after the implantation of the tumor, the volume of the drug solution being 0.1 ml per 10 g of the body weight of the mouse.
# Each mouse is weighed, and width (a mm) and length (b mm) of the tumor thereof are measured twice a week to determine the tumor volume (A mm^3) from the following equation: […]
# Subsequently, the tumor growth rate (R) is determined as follows on the basis of the tumor volume (A10) on day 10 after the implantation of the tumor cells:
# R: Tumor growth rate after a predetermined period from the tumor implantation
# A: Tumor volume after a predetermined period from the tumor implantation
# A10 : Tumor volume as determined 10 days after the tumor implantation
# T/C (%) is further obtained from the following equation by comparison between the tumor growth rate in the test group (Rt) and that in the control group (Rc):
# Test group: 125 mg/kg of the drug was intravenously administered on days
# 10, 14 and 18 after the tumor implantation.
# [4] = system: KU-2; assay: In vitro anti-proliferative activity against human tumor cell lines (KU-2); format: cell-based; conditions: KU-2, Renal cell carcinoma, 72 hours
# Protocol: as §1, §2, §3, §4, §5
# [5] = system: PC-3; assay: In vitro anti-proliferative activity against human tumor cell lines (PC-3); format: cell-based; conditions: PC-3, Prostate adenocarcinoma, 72 hours
# Protocol: as §1, §2, §3, §4, §5
# [6] = day 22, * = P < 0.05 vs control
# [7] = day 25, * = P < 0.05 vs control
structure (smiles),measurement,setting,value
C#Cc1c(C(N)=O)ncn1[C@@H]1O[C@H](CO)[C@@H](O)[C@H]1O [5-ethynyl-1-β-D-ribofuranosylimidazole-4-carboxamide],IC50,[1],0.9 µg/mL
same,IC50,[2],0.1 µg/mL
same,antitumor activity,"[3]; 125 mg/kg every 4 days 3 times in total, i.v.",remarkable antitumor activity
same,Body weight,[3]; day 10 after implantation,20 g
same,T/C (%),[3]; day 10 after implantation,100%
same,Tumor growth rate (Rt),[3]; day 10 after implantation,1.0
same,Body weight,[3]; day 14,21 g
same,T/C (%),[3]; day 14,67%
same,Tumor growth rate (Rt),[3]; day 14,3.0
same,Body weight,[3]; day 17,21 g
same,T/C (%),[3]; day 17,67%
same,Tumor growth rate (Rt),[3]; day 17,5.1
same,Body weight,[3]; day 22,22 g
same,T/C (%),[3]; [6],60%
same,Tumor growth rate (Rt),[3]; [6],8.0
same,Body weight,[3]; day 25,23 g
same,T/C (%),[3]; [7],63%
same,Tumor growth rate (Rt),[3]; [7],12
same,Body weight,[3]; day 28,23 g
same,T/C (%),[3]; day 28,67%
same,Tumor growth rate (Rt),[3]; day 28,16
same,Body weight,[3]; day 31,24 g
same,T/C (%),[3]; day 31,71%
same,Tumor growth rate (Rt),[3]; day 31,20
same,Body weight,[3]; day 35,23 g
same,T/C (%),[3]; day 35,77%
same,Tumor growth rate (Rt),[3]; day 35,30
same,IC50,[4],< 0.1 µg/mL
same,IC50,[5],0.8 µg/mL
